Test results reported in patent publication US9938273B2 (Plexxikon Inc., priority 2015, dated 2018).

Assays:
FLT3-D835Y = molecular target: T1, FLT3-D835Y (Homo sapiens, UniProt P36888, D835Y); assay: AlphaScreen kinase assay with recombinant enzyme, FLT3-D835Y; assay type: biochemical; conditions: 8pt, GMean
T1 construct: purchased Invitrogen PV3967
T1 sequence (P36888 27-993 D835Y): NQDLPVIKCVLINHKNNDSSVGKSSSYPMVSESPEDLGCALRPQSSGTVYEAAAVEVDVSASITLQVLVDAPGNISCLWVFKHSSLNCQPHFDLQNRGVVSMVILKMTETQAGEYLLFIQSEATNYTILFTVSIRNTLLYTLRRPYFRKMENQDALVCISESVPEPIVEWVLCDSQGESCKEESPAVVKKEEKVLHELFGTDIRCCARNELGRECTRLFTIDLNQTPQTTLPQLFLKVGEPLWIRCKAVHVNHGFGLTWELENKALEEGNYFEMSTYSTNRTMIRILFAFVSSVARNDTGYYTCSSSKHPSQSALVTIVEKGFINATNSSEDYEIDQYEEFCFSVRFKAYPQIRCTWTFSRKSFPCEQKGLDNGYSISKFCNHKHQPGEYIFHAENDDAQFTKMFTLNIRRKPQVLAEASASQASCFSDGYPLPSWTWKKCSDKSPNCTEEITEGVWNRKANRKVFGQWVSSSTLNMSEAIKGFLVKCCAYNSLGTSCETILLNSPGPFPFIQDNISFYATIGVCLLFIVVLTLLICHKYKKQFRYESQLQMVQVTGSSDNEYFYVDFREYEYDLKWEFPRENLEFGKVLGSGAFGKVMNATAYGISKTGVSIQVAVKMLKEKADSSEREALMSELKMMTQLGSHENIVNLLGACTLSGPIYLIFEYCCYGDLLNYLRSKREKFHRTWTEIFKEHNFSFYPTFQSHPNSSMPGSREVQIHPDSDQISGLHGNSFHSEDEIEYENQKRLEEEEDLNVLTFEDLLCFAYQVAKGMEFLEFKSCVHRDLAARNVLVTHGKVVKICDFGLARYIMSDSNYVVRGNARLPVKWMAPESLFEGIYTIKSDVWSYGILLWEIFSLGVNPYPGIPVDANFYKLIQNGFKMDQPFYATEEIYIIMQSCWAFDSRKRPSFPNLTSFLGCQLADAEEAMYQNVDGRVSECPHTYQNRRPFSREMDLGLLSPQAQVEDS
Method in brief: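 Compounds in DMSO added to enzyme plus biotin-poly(Glu4-Tyr) (30 nM) in assay buffer, then ATP added. Streptavidin donor beads added (20 min, RT), then PY20 acceptor beads (60 min, RT), both at 10 μg/mL final in stop/detection buffer. IC50 conditions: 10 μM FLT3-D835Y/ITD, 100 μM c-KIT.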

[1] = tested on: MOLM-14 F691L cells, FLT3 ITD and FLT3 F691L; assay: Cell proliferation assay (CellTiter-Glo), MOLM-14 F691L; assay type: cell-based; conditions: Homo sapiens, 72 h, 3d-Growth, GMean
Method in brief: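 MOLM-14 AML cells (endogenous FLT3 ITD, AC220-selected D835Y or F691L variants) or murine Ba/F3 expressing full-length FLT3 ITD/D835Y, without IL-3 for FLT3 dependence, 1×10^4 cells/well. Eight-point 1:3 series from 1 μM final, 0.2% DMSO, 3 days at 37 °C. CellTiter-Glo luminescence (ATP) gave IC50.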

Structure (SMILES) | IC50 (FLT3-D835Y) [µM] | IC50 [1] [µM]
CC(C)(C#N)NC(=O)c1cccc(-c2cnc3[nH]c(-c4ccc(C5CC5)nc4)cc3c2)n1 [Compound P-0168, N-(1-cyano-1-methyl-ethyl)-6-[2-(6-cyclopropyl-3-pyridyl)-1H-pyrrolo[2,3-b]pyridin-5-yl]pyridine-2-carboxamide] | 0.0001 to 10 | 0.0001 to 10
Cc1nc(C(C)C)sc1-c1cc2cc(-c3cccc(C(=O)NC(C)(C)C#N)n3)cnc2[nH]1 [Compound P-0169, N-(1-cyano-1-methyl-ethyl)-6-[2-(2-isopropyl-4-methyl-thiazol-5-yl)-1H-pyrrolo[2,3-b]pyridin-5-yl]pyridine-2-carboxamide] | 0.0001 to 10 | 0.0001 to 10
CC(C)(C#N)NC(=O)c1cccc(-c2cnc3[nH]c(-c4cnn(CCC#N)c4)cc3c2)n1 [Compound P-0170, 6-[2-[1-(2-cyanoethyl)pyrazol-4-yl]-1H-pyrrolo[2,3-b]pyridin-5-yl]-N-(1-cyano-1-methyl-ethyl)pyridine-2-carboxamide] | 0.0001 to 10 | 0.0001 to 10
CC(C)(C#N)NC(=O)c1cccc(-c2cnc3[nH]c(-c4cnn(Cc5ccccc5)c4)cc3c2)n1 [Compound P-0171, 6-[2-(1-benzylpyrazol-4-yl)-1H-pyrrolo[2,3-b]pyridin-5-yl]-N-(1-cyano-1-methyl-ethyl)pyridine-2-carboxamide] | 0.0001 to 10 | 0.0001 to 10
COCCn1cc(-c2cc3cc(-c4cccc(C(=O)NC(C)(C)C#N)n4)cnc3[nH]2)cn1 [Compound P-0172, N-(1-cyano-1-methyl-ethyl)-6-[2-[1-(2-methoxyethyl)pyrazol-4-yl]-1H-pyrrolo[2,3-b]pyridin-5-yl]pyridine-2-carboxamide] | 0.0001 to 10 | 0.0001 to 10
CC(C)(C#N)NC(=O)c1cccc(-c2cnc3[nH]c(-c4cnn(C5CCOC5)c4)cc3c2)n1 (stereo not drawn) [Compound P-0173, N-(1-cyano-1-methyl-ethyl)-6-[2-(1-tetrahydrofuran-3-ylpyrazol-4-yl)-1H-pyrrolo[2,3-b]pyridin-5-yl]pyridine-2-carboxamide] | 0.0001 to 10 | 0.0001 to 10
CC(C)(C#N)NC(=O)c1cccc(-c2cnc3[nH]c(-c4cnn(CCN5CCOCC5)c4)cc3c2)n1 [Compound P-0174, N-(1-cyano-1-methyl-ethyl)-6-[2-[1-(2-morpholinoethyl)pyrazol-4-yl]-1H-pyrrolo[2,3-b]pyridin-5-yl]pyridine-2-carboxamide] | 0.0001 to 10 | 0.0001 to 10
CC(C)(C#N)NC(=O)c1cccc(-c2cnc3[nH]c(C#Cc4ccccc4)cc3c2)n1 [Compound P-0176, N-(1-cyano-1-methyl-ethyl)-6-[2-(2-phenylethynyl)-1H-pyrrolo[2,3-b]pyridin-5-yl]pyridine-2-carboxamide] | 0.0001 to 10 | 0.0001 to 10
Cc1nn(C(C)C)cc1-c1cc2cc(-c3cccc(C(=O)NC(C)(C)C#N)n3)cnc2[nH]1 [Compound P-0178, N-(1-cyano-1-methyl-ethyl)-6-[2-(1-isopropyl-3-methyl-pyrazol-4-yl)-1H-pyrrolo[2,3-b]pyridin-5-yl]pyridine-2-carboxamide] | 0.0001 to 10 | 0.0001 to 10
CC(C)(C#N)NC(=O)c1cccc(-c2cnc3[nH]c(C4=CCSCC4)cc3c2)n1 [Compound P-0180, N-(1-cyano-1-methyl-ethyl)-6-[2-(3,6-dihydro-2H-thiopyran-4-yl)-1H-pyrrolo[2,3-b]pyridin-5-yl]pyridine-2-carboxamide] | 0.0001 to 10 | 0.0001 to 10
CC(C)(C#N)NC(=O)c1cccc(-c2cnc3[nH]c(C4=CCN(C(=O)C5CC5)CC4)cc3c2)n1 [Compound P-0181, N-(1-cyano-1-methyl-ethyl)-6-[2-[1-(cyclopropanecarbonyl)-3,6-dihydro-2H-pyridin-4-yl]-1H-pyrrolo[2,3-b]pyridin-5-yl]pyridine-2-carboxamide] | 0.0001 to 10 | 0.0001 to 10
CC(C)(C#N)NC(=O)c1cccc(-c2cnc3[nH]c(C4=CCNCC4)cc3c2)n1 [Compound P-0182, N-(1-cyano-1-methyl-ethyl)-6-[2-(1,2,3,6-tetrahydropyridin-4-yl)-1H-pyrrolo[2,3-b]pyridin-5-yl]pyridine-2-carboxamide] | 0.0001 to 10 | 0.0001 to 10
CC(C)(C#N)NC(=O)c1cccc(-c2cnc3[nH]c(-c4cn[nH]c4)cc3c2)n1 [Compound P-0183, N-(1-cyano-1-methyl-ethyl)-6-[2-(1H-pyrazol-4-yl)-1H-pyrrolo[2,3-b]pyridin-5-yl]pyridine-2-carboxamide] | 0.0001 to 10 | 0.0001 to 10
CC(C)(C#N)NC(=O)c1cccc(-c2cnc3[nH]c(-c4cnn(C5CCNCC5)c4)cc3c2)n1 [Compound P-0187, N-(1-cyano-1-methyl-ethyl)-6-[2-[1-(4-piperidyl)pyrazol-4-yl]-1H-pyrrolo[2,3-b]pyridin-5-yl]pyridine-2-carboxamide] | 0.0001 to 10 | 0.0001 to 10
CC(C)(C#N)NC(=O)c1cccc(-c2cnc3[nH]c(C4=CCN(S(=O)(=O)C5CC5)CC4)cc3c2)n1 [Compound P-0188, N-(1-cyano-1-methyl-ethyl)-6-[2-(1-cyclopropylsulfonyl-3,6-dihydro-2H-pyridin-4-yl)-1H-pyrrolo[2,3-b]pyridin-5-yl]pyridine-2-carboxamide] | 0.0001 to 10 | 0.0001 to 10
